Laboratory results from patent publication US20230146870A1, “METHOD TO QUANTIFY AFFINITY AND SELECTIVITY OF SMALL MOLECULES FOR PROTEINS IN LIVING CELLS” (Ohio State Innovation Foundation, priority 2021, published 2023).
Several values for one entry are separate records, joined by “and”; a condition that tells them apart may be missing. Identical values can stand only once. Like-named read-outs stand apart in the source and are kept apart here.

Experiments:
mouse PKCδ-mVenus = mouse PKCδ-mVenus (Mus musculus, UniProt P28867); assay: Apparent cellular Kd by flow cytometry, HEK293 cells overexpressing PKCδ-mVenus (Example 2)
Chain of mouse PKCδ-mVenus (P28867 whole entry): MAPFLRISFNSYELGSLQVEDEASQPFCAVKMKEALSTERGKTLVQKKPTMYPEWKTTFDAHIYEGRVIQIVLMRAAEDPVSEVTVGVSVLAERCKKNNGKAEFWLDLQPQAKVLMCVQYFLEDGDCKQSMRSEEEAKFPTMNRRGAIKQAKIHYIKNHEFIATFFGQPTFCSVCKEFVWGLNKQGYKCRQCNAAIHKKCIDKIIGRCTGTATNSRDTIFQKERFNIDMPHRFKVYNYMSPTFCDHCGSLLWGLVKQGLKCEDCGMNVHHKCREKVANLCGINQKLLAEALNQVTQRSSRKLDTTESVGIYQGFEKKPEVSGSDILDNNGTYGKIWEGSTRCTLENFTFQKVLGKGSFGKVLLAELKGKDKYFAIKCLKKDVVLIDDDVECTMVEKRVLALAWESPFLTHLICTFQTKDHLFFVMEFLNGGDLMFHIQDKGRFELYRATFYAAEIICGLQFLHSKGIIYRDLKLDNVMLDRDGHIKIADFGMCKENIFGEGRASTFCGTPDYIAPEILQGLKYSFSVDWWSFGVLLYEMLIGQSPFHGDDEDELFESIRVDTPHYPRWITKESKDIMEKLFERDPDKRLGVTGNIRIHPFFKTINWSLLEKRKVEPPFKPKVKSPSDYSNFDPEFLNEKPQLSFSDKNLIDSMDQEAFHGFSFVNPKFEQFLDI

mouse PKCη-mVenus = mouse PKCη-mVenus (Mus musculus, UniProt P23298); assay: Apparent cellular Kd by flow cytometry, HEK293 cells overexpressing PKCη-mVenus (Example 2)
Chain of mouse PKCη-mVenus (P23298 whole entry): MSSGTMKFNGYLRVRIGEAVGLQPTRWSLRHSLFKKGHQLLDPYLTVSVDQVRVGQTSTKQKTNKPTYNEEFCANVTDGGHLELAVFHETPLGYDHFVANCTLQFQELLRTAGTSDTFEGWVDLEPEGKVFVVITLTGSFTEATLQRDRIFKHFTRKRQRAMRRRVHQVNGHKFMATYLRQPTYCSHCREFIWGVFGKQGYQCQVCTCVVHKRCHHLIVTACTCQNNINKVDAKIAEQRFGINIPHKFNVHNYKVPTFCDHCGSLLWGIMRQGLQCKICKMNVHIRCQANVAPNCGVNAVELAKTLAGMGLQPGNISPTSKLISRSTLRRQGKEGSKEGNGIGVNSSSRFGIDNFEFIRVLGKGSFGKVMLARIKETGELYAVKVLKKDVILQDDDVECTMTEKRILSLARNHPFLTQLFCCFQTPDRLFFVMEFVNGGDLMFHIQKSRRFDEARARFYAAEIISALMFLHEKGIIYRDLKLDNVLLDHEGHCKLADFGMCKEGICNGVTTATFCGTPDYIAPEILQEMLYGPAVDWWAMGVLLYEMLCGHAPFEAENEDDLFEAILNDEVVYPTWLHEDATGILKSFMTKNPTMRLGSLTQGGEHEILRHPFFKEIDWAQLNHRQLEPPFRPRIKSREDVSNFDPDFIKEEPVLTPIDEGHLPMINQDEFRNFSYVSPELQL

mouse PKCβI-mVenus = target: T1, mouse PKCβI-mVenus (Mus musculus, UniProt P68404); assay: Apparent cellular Kd by flow cytometry, HEK293 cells overexpressing PKCβI-mVenus (Example 2); format: binding
T1 construct: eight plasmids encoding full length mouse PKC isozymes fused to; expressed in transfected cells; host or cells: HEK293
T1 sequence (P68404 whole entry, the tested form may be a part): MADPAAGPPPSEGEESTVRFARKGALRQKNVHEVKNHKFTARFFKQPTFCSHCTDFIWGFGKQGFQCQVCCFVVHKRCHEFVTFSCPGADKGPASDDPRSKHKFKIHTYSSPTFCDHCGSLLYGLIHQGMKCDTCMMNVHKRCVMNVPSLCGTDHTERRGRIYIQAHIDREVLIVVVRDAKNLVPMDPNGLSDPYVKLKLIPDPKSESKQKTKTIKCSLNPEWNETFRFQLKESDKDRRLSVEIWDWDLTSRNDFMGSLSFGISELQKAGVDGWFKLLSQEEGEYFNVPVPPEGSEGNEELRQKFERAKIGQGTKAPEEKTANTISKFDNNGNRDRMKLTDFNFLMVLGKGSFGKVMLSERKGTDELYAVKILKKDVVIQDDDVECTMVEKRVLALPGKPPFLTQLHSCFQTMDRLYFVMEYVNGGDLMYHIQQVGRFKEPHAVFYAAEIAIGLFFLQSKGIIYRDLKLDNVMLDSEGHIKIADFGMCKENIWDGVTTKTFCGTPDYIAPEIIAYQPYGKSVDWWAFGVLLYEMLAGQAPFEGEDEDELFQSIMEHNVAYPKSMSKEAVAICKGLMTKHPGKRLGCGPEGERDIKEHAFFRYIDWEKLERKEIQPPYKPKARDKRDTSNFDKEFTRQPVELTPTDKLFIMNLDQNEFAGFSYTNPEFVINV
Protocol: The apparent Kd values of these fluorescent probes were measured using different PKC isozymes (e.g., PKCβI, FIGS. 20A-20D). HEK293 cells were transfected to overexpress PKCβ-mVenus and treated with probes in the presence of verapamil (100 μM) as an inhibitor of efflux.

mouse PKCα-mVenus = mouse PKCα-mVenus (Mus musculus, UniProt P20444); assay: Apparent cellular Kd by flow cytometry, HEK293 cells overexpressing PKCα-mVenus (Example 2)
mouse PKCθ-mVenus = mouse PKCθ-mVenus (Mus musculus, UniProt Q02111); assay: Apparent cellular Kd by flow cytometry, HEK293 cells overexpressing PKCθ-mVenus (Example 2)
Chain of mouse PKCθ-mVenus (Q02111 whole entry): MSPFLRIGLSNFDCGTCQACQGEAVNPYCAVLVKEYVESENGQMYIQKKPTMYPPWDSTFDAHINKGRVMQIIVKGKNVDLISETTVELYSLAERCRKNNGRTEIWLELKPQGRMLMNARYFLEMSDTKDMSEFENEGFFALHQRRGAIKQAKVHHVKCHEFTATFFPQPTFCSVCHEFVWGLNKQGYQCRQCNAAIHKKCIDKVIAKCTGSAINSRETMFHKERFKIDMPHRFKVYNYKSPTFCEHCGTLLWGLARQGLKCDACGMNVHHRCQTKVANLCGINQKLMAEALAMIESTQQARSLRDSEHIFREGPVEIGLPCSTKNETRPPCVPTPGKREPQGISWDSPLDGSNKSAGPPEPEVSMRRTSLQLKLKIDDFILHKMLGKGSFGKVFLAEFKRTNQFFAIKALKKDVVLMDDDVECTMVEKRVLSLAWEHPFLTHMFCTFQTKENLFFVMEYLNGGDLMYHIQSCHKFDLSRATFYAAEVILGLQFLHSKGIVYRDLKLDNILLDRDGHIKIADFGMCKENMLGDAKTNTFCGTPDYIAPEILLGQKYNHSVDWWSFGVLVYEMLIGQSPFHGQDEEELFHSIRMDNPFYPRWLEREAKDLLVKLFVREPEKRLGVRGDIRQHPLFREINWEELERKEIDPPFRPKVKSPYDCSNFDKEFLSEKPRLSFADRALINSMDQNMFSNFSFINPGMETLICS

mouse PKCγ-mVenus = mouse PKCγ-mVenus (Mus musculus, UniProt P63318); assay: Apparent cellular Kd by flow cytometry, HEK293 cells overexpressing PKCγ-mVenus (Example 2)
mouse PKCε-mVenus = target: T2, mouse PKCε-mVenus (Mus musculus, UniProt P16054); assay: Apparent cellular Kd by flow cytometry, HEK293 cells overexpressing PKCε-mVenus (Example 2)
T2 sequence (P16054 1-737): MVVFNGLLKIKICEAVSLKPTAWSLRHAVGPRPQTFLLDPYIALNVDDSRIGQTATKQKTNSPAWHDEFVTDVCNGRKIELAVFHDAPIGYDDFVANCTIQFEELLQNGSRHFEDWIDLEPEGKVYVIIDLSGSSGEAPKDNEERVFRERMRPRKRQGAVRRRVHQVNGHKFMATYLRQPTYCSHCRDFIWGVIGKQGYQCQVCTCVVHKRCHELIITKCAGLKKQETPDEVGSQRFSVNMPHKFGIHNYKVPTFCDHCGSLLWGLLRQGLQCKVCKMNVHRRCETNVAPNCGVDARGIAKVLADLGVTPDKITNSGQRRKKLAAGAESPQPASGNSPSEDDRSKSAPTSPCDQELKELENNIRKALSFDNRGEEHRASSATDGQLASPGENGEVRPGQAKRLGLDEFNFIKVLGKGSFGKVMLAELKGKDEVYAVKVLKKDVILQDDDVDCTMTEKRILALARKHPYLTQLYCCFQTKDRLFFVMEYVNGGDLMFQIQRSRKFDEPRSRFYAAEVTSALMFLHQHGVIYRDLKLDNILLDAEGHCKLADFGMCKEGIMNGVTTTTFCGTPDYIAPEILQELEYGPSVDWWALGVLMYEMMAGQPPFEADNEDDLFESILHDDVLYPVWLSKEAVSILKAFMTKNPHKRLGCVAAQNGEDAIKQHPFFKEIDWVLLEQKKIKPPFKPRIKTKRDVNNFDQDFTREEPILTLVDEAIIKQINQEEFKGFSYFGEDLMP

[1] = target: T3, native (untagged) murine PKCδ (Mus musculus, UniProt P28867); assay: FPCBA competition with probe 1, native PKCδ in HEK293 cells; format: binding; details: read-out: Cellular Ki for native PKCδ (95% confidence interval)
T3 construct: For coexpression of full-length unmodified PKC proteins with mVenus as an independent marker; expressed in transfected cells; host or cells: HEK293 (transient, pIRES-mVenus)
T3 sequence (P28867 whole entry): as the sequence (P28867 whole entry) above

HEK293 cells = assay: Cytotoxicity assay, HEK293 cells, 48 h, flow cytometry (Example 3); details: concentrations of ≤10 μM
Protocol: As a preliminary assessment of their ability to activate PKCs, we evaluated the cytotoxicity of 1-3 towards HEK293 and Jurkat cells.
Where noted, 2×BIM1 (4 μM) was included. These diluted solutions of compounds (100 μL) were added to each well of a 96-well plate containing cells in medium (100 μL) in triplicate. For Jurkat lymphocytes, cells were seeded in fresh complete RPMI medium (10% FBS, 1% Pen/Strep) at 4.5×10^5 cells/mL (2× stock, 100 μL per well, [DMSO]=0.2%). […] Cell culture media (100 μL) was carefully removed from each well followed by the addition of the diluted compound solutions (2×, 100 μL) in triplicate.

[2] = target: T4, native (untagged) murine PKCε (Mus musculus, UniProt P16054); assay: FPCBA competition with probe 1, native PKCε in HEK293 cells; format: binding; set-up: For coexpression of full-length unmodified PKC proteins with mVenus as an independent marker; expressed in transfected cells; host or cells: HEK293 (transient, pIRES-mVenus); details: read-out: Cellular Ki for native PKCε (95% confidence interval)
T4 sequence (P16054 1-737): T2 sequence (P16054 1-737)

[3] = target: native (untagged) murine PKCγ (Mus musculus, UniProt P63318); assay: FPCBA competition with probe 1, native PKCγ in HEK293 cells; format: binding; set-up: For coexpression of full-length unmodified PKC proteins with mVenus as an independent marker; expressed in transfected cells; host or cells: HEK293 (transient, pIRES-mVenus); details: read-out: Cellular Ki for native PKCγ (95% confidence interval)
Jurkat lymphocytes = assay: Cytotoxicity assay, Jurkat lymphocytes, 48 h, flow cytometry (Example 3); format: cell-based
Protocol: […]. Where noted, 2×BIM1 (4 μM) was included.

[4] = target: T5, native (untagged) murine PKCβI (Mus musculus, UniProt P68404); assay: FPCBA competition with probe 1, native PKCβI in HEK293 cells; format: binding; details: read-out: Cellular Ki for native PKCβI (95% confidence interval)
T5 construct: For coexpression of full-length unmodified PKC proteins with mVenus as an independent marker; expressed in transfected cells; host or cells: HEK293 (transient, pIRES-mVenus)
T5 sequence (P68404 2-673 isoform P68404-2): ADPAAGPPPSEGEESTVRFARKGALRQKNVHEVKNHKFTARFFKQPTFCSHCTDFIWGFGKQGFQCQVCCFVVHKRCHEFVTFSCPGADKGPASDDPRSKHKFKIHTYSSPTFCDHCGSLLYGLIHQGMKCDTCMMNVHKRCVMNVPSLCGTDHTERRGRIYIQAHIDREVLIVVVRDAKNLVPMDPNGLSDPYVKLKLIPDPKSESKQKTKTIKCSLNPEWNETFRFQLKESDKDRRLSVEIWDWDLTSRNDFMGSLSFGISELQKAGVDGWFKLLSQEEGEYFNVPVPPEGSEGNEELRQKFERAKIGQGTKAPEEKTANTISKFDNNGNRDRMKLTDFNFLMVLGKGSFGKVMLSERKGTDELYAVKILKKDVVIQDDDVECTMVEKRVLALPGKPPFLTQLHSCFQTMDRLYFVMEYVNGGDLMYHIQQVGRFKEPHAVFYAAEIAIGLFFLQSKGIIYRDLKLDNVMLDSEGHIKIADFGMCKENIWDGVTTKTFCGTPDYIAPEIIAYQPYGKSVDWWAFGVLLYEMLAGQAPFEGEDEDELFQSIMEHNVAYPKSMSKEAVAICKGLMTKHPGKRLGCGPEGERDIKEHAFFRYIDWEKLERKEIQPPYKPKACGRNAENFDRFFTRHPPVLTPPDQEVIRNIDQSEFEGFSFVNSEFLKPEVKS

[5] = target: T6, native (untagged) murine PKCζ (Mus musculus, UniProt Q02956); assay: FPCBA competition with probe 1, native PKCζ in HEK293 cells; format: binding; set-up: expressed in transfected cells; host or cells: HEK293 (ATCC CRL-1573), transient transfection with pIRES-mVenus carrying the PKC gene
T6 sequence (Q02956 1-592): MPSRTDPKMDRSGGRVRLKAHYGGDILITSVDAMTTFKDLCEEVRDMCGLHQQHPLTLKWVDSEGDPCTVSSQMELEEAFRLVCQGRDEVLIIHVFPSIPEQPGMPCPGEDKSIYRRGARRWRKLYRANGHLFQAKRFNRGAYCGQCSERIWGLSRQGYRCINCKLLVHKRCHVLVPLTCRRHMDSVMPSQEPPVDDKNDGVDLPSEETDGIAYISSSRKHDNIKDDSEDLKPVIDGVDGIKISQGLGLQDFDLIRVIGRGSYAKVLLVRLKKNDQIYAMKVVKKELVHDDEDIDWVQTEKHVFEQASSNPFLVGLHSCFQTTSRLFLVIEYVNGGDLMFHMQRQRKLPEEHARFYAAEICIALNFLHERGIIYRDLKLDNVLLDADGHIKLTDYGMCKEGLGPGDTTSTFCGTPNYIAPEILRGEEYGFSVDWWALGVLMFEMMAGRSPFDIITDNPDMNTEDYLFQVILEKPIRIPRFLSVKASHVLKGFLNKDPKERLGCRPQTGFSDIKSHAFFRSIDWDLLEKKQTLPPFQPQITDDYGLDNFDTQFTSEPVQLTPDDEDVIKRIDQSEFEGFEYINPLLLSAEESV

PKC proteins = details: cited from earlier work
[6] = target: native (untagged) murine PKCη (Mus musculus, UniProt P23298); assay: FPCBA competition with probe 1, native PKCη in HEK293 cells; format: binding; set-up: expressed in transfected cells; host or cells: HEK293 (ATCC CRL-1573), transient transfection with pIRES-mVenus carrying the PKC gene; details: read-out: Cellular Ki for native PKCη (95% confidence interval)
Chain of native (untagged) murine PKCη (P23298 whole entry): as the sequence (P23298 whole entry) above

PKCδ = details: read-out: Biochemical Ki, PKCδ; cited from earlier work
[7] = target: native (untagged) murine PKCθ (Mus musculus, UniProt Q02111); assay: FPCBA competition with probe 1, native PKCθ in HEK293 cells; format: binding; set-up: expressed in transfected cells; host or cells: HEK293 (ATCC CRL-1573), transient transfection with pIRES-mVenus carrying the PKC gene; details: read-out: Cellular Ki for native PKCθ (95% confidence interval)
Chain of native (untagged) murine PKCθ (Q02111 whole entry): as the sequence (Q02111 whole entry) above

SMILES: CCN(CCCCCCCCCCCCNC(=O)c1cc2cc(F)c(O)c(F)c2oc1=O)C(=O)O[C@@]12[C@H](O)[C@@H](C)[C@@]3(O)[C@@H](C=C(CO)C[C@]4(O)C(=O)C(C)=C[C@@H]34)[C@@H]1C2(C)C [probe 47, (1aR,1bS,4aR,7aS,7bS,8R,9R,9aS)-4a,7b,9-trihydroxy-3-(hydroxymethyl)-1,1,6,8-tetramethyl-5-oxo-1,1a,1b,4,4a,5,7a,7b,8,9-decahydro-9aH-cyclopropa[3,4]benzo[1,2-e]azulen-9a-yl (12-(6,8-difluoro-7-hydroxy-2-oxo-2H-chromene-3-carboxamido)dodecyl)(ethyl)carbamate]
- Kd (mouse PKCδ-mVenus): 7.8 µM
- Kd (mouse PKCη-mVenus): 8.2 µM
- Kd (mouse PKCβI-mVenus): 0.9 µM
- Kd (mouse PKCα-mVenus): 1.6 µM
- Kd (mouse PKCθ-mVenus): 13.2 µM
- Kd (mouse PKCγ-mVenus): 2 µM
- Kd (mouse PKCε-mVenus): 7.9 µM

SMILES: CCCC(=O)O[C@@H]1[C@@H](C)[C@@]2(O)[C@@H](C=C(CO)C[C@]3(O)C(=O)C(C)=C[C@@H]23)[C@@H]2C(C)(C)[C@]12OC(=O)CCC [PDBu, phorbol 12,13-dibutyrate]
- Ki [1]: 0.032 µM and 0.05 µM
- toxicity towards HEK293 cells (HEK293 cells): non-toxic
- Ki [2]: 0.055 µM
- Ki [3]: 0.044 µM
- effect of BIM1 on cytotoxicity towards Jurkat lymphocytes (Jurkat lymphocytes; BIM1 2 μM): completely blocked
- IC50 (Jurkat lymphocytes; read-out: cytotoxicity towards Jurkat lymphocytes, IC50): 0.002 µM
- Ki [4]: 0.014 µM
- Cellular Ki for native PKCζ [5]: No binding
- Kd (PKC proteins; in the presence of phospholipids): ~0.001 µM
- Kd (PKC proteins; without phospholipids): ~0.16 µM
- Ki [6]: 0.014 µM
- Ki [7]: 0.05 µM
